From US12345641B2, “Fluorescence quenching immunoassay” (IDEXX Laboratories, Inc., priority 2020, dated 2025)

Experiments:
[1] = Absorption and emission spectra of fluoresceins and SDMA conjugates (Example 33); assay type: physicochemical; settings: PBS buffer
From the text: The maximum absorption of fluorescein (Fl) in PBS buffer is at 489 nm and the maximum fluorescence emission is at 515 nm. When the fluorescein molecule is conjugated with an SDMA molecule via a —CH2NH— linker (i.e., to provide SDMA-Fl), its maximum absorption and emission are shifted to 495 nm and 525 nm, respectively. When the fluorescein molecule is substituted by fluorine at the 2′ and 7′ positions (i.e., to provide DFF) there is no any change in the maximum absorption and emission compared to unsubstituted fluorescein. When the fluorescein molecule is substituted by chloride at the 2′ and 7′ positions (i.e., to provide DCF) the maximum absorption and emission are red-shifted to 500 nm and 525 nm, respectively. Also conjugating DFF or DCF to SDMA via a —CH2NH— linker (i.e., to provide SDMA-DFF and SDMA DCF, respectively) results in the maximum absorption and emission being red-shifted. The maximum absorption and emission wavelengths of fluorescein (FL), 2′,7′-difluorofluorescien (DFF), 2′,7′-dichlorofluorescien (DCF), and their conjugates with SDMA via a —CH2NH— linker (i.e., SDMA-Fl (i.e., structure A3), SDMA-DFF, and SDMA-DCF) are listed in the Table provided below. The absorption spectra of DFF, SDMA-DFF, DCF, SDMA-DCF, Fl, and SDMA-FL are depicted in FIG. 25A and the emission spectra of SDMA-DFF, SDMA-DCF, Fl, and SDMA-FL are depicted in FIG. 25B.

[2] = test system: antibody to SDMA; test: Fluorescence decrease of tracer A3 on complexing with anti-SDMA antibody conjugated to BHQ10 (FIG. 23); assay type: binding
From the text: The decrease in fluorescence of a fluorescent tracer when it forms a complex with a binding partner that is conjugated to a quencher is a function of the equivalents of quencher molecules that are conjugated to the binding partner. The more quencher molecules conjugated to the binding partner, the greater the decrease in fluorescence. This is depicted in FIG. 23 as a plot of fluorescence vs. ratio of antibody:fluorescent tracer for antibody that is conjugated to 2, 4, 6, and 8 BHQ10 quencher molecules.

[3] = test system: anti-SDMA antibody; test: Fluorescence quenching of SDMA tracers by anti-SDMA antibody or antibody-BHQ10 (Example 34); assay type: binding; settings: for fluorescence quenched by adding anti-SDMA antibody: antibody not conjugated to a quencher
Protocol: Solutions of anti-SDMA antibody or anti-SDMA antibody conjugated to BHQ10 (4 eq.) in phosphate buffered saline (PBS) were prepared at concentrations of 0, 0.25, 0.5, 1, 2, 4, 8, and 16 μM (antibody solution). Solutions of an SDMA fluorescent tracer (i.e., SDMA-Fl, SDMA-DFF, or SDMA-DCF) in PBS were prepared at a concentration of 100 nM (tracer solution). 50 μL of antibody solution and 50 μL of tracer solution were combined on a 96-well UV plate and incubated for 30 min. at room temperature. […] The results are depicted in FIGS. 26 and 27.

[4] = test system: anti-penicillin polyclonal antibody; test: Fluorescence of beta lactam-fluorescein conjugates with anti-penicillin antibody (Example 25); assay type: binding; settings: tracer and antibody 200 nM
Protocol: Beta lactam antibiotics conjugated to fluorescein (i.e., AMO-FITC, AMO-F, AMP-F, and CEF-F) in PBS (400 nM, 100 μL) were mixed with either anti-penicillin or anti-cefotaxime polyclonal antibody (400 nM, 100 μL, commercially available from Novus Biologicals, LLC of Centennial, CO) in the absence of and in the presence of free beta-lactam antibiotic (ampicillin (400 nM) was added to AMP-F and cefotaxime (400 nM) was added to CEF-F) in a 96 well black assay plate. […] The solutions were incubated at room temperature for 5 min and the fluorescence intensity measured.

[5] = test system: Cy5 conjugated antibody (Ab-Cy5, anti-T4-Mab); test: Fluorescence quenching of T4-F by Ab-Cy5 (Example 23); assay type: binding
Protocol: T4-F was dissolved in DMSO (1 mM) and diluted with PBS to provide a stock solution (4 μM). A series of PBS solutions of Cy5 conjugated antibody (Ab-Cy5, made as in Example 12) having Ab-Cy5 concentrations ranging from 0 to 400 nM were prepared by serial dilution. In the wells of a 96 well black assay plate was combined T4-F in PBS (5 μL) and a serially diluted Ab-Cy5 solution (95 μL) and the plate shaken for 30 min at room temperature.

[6] = test system: anti-sulfadimethoxine monoclonal antibody; test: Fluorescence of SDM-F or SDM-Su-F with anti-sulfadimethoxine monoclonal antibody (Example 26); assay type: binding
Protocol: SDM-F or SDM-Su-F in PBS (400 nM, 100 μL) was mixed with anti-sulfadimethoxine monoclonal antibody (400 nM, 100 μL, commercially available from Genway Biotech of San Diego, CA) in the absence of and the presence of sulfadimethoxine (SDM) (400 nM). The resulting solutions were incubated at room temperature for 5 min and the fluorescence intensity then measured.

[7] = test system: anti-T4 antibody; test: Maximum percentage fluorescence quenching of T2-F, T3-F, T4-F by anti-T4 antibody with and without quencher label (Example 27 table); assay type: binding
Protocol: In another experiment, tracer T2-F, T3-F, or T4-F was dissolved in DMSO to provide a DMSO solution at a tracer concentration of 1 mM. The DMSO solution was then diluted with phosphate buffered saline (“PBS”) to provide a stock solution of each tracer at a concentration of 10 μM. Monoclonal anti-T4-Mab or anti-T4-Mab conjugated to a quencher (Cy3-Ab, IRdyeQC1-Ab, Cy5-Ab, BHQ1-Ab) were serially diluted in PBS to provide solutions having an Anti-T4-Mab or anti-T4-Mab conjugated to quencher at concentration ranging from 0 to 2 μM. In a 96 well black assay plate containing the serially diluted Anti-T4-Mab or anti-T4-Mab conjugated to quencher (95 μL) was added the tracer T2-F, T3-F, or T4-F solution (5 μL), mixed well, and incubated for 30 min and the fluorescence intensities then recorded at an excitation wavelength of 485 nm and an emission wavelength of 520 nm. The results of maximum percentage fluorescence quenching for different tracers and quencher-modified antibodies are provided in the following Table: […]

[8] = test system: Monoclonal anti-NT-proBNP antibody (ADX-15 Mab); test: Fluorescence quenching of canine NT-proBNP peptide-Fl/DFF conjugates by anti-NT-proBNP Mab and Ab-BHQ10 (Example 52); assay type: binding; settings: No = No Quenching
Protocol: NT-proBNP peptide-fluorescein (Fl) or -difluorofluorescein (DFF) conjugates were dissolved in DMSO (0.4 mM) and diluted with PBS to provide a stock solution (100 nM). Monoclonal anti-NT-proBNP antibody (ADX-15 Mab, IDEXX Laboratories Inc. of Westbrook, ME) (6.84 mg/ml) was serially diluted in PBS buffer to provide solutions having an antibody concentration ranging from 0 to 800 nM in PBS. In a 96 well black assay plate containing the serially diluted antibody solution (50 μL) was added the P1-Fl or P1-DFF, or other peptide-Fl or Peptide-DFF solution (50 μL), mixed well, incubated for 30 min and the fluorescence intensities recorded (excitation at 485 nm and emission at 520 nm). The results are provided in FIG. 47, FIG. 48, and Table 2.

[9] = test system: anti-NT-proBNP-Mab; test: Canine NT-proBNP peptide P1 dose response in PBS and serum (Example 52); assay type: binding
Protocol: A mixture of NT-proBNP P1-Fl or P1-DFF in PBS (100 nM, 25 μL) and anti-NT-proBNP-Mab in PBS (100 nM, […]) were incubated at room temperature for 30 min in the wells of a 96 well black assay plate. A series of NT-proBNP peptide P1 standard solutions in PBS or charcoal stripped serum having peptide or protein concentrations ranging from 0 to 320 nM (50 μL) were then added to the mixtures of P1-Fl or P1-DFF and anti-NT-proBNP Mab in PBS. The plate was then incubated for 30 min at room temperature and the fluorescence intensities recorded at excitation at 485 nm and emission at 520 nm. The results are shown in FIG. 49, FIG. 50, FIG. 51, and FIG. 52.

[10] = test system: anti-NT-proBNP Mab; test: Canine NT-proBNP full length protein dose response (Example 52); assay type: binding
Protocol: A mixture of NT-proBNP P1-Fl or P1-DFF in PBS (200 nM, 10 μL) and anti-NT-proBNP Mab in PBS (200 nM, 10 μL) were incubated at room temperature for 30 min in the wells of a 96 well black assay plate. A series of NT-proBNP peptide P1 standard solutions in PBS having NT-proBNP full length protein (lyophilized powder synthesized by New England Biolabs of Ipswich, MA) at concentrations ranging from 0 to 320 nM (80 μL) were then added to the mixtures of P1-Fl or P1-DFF and anti-NT-proBNP Mab in PBS. The plate was then incubated for 30 min at room temperature and the fluorescence intensities recorded at an excitation of 485 nm and an emission of 520 nm.

Molecule: C/N=C(\NC)NCCC[C@@H](N)C(=O)NCc1c(O)ccc2c(-c3ccccc3C(=O)O)c3ccc(=O)cc-3oc12 (stereo in doubt) [SDMA-Fl]
- Max Absorption [1]: 495 nm
- Max Emision [1]: 525 nm
- maximum decrease in fluorescence ([2]; antibody conjugated to 2 equivalents of BHQ10): about 50%
- maximum decrease in fluorescence ([2]; antibody conjugated to 8 equivalents of BHQ10): about 70%
- fluorescence quenched by adding anti-SDMA antibody [3]: about 30%

Molecule: CC1(C)SC2C(NC(=O)C(NCc3c(O)ccc4c(-c5ccccc5C(=O)O)c5ccc(=O)cc-5oc34)c3ccc(O)cc3)C(=O)N2C1C(=O)O (stereo not shown) [AMO-F, Amoxicillin-Fluorescein]
- fluorescence quenching by anti-penicillin antibody [4]: quenched

Molecule: CC1(C)SC2C(NC(=O)C(NC(=S)Nc3ccc(-c4c5ccc(=O)cc-5oc5cc(O)ccc45)c(C(=O)O)c3)c3ccc(O)cc3)C(=O)N2C1C(=O)O (stereo not shown) [AMO-FITC]
- fluorescence quenching by anti-penicillin antibody [4]: not quenched

Molecule: CC1(C)SC2C(NC(=O)C(NCc3c(O)ccc4c(-c5ccccc5C(=O)O)c5ccc(=O)cc-5oc34)c3ccccc3)C(=O)N2C1C(=O)O (stereo not shown) [AMP-F, Ampicillin-Fluorescein]
- fluorescence quenching by anti-penicillin antibody [4]: quenched

Molecule: CCN1/C(=C/C=C/C=C/C2=[N+](CCCCCC(=O)O)c3ccc(S(=O)(=O)O)cc3C2(C)C)C(C)(C)c2cc(S(=O)(=O)[O-])ccc21 [Cy5, reference compound]
- quenching of T4-F fluorescence by Cy5 alone (not conjugated to Anti-T4-Mab) [5]: did not quench fluorescence

Molecule: COc1cc(NS(=O)(=O)c2ccc(NCc3c(O)ccc4c(-c5ccccc5C(=O)O)c5ccc(=O)cc-5oc34)cc2)nc(OC)n1 [SDM-F, Sulfadimethoxine-Fluorescein]
- amount of quenching compared to SDM-Su-F [6]: greater amount of quenching
- fluorescence quenching by anti-sulfadimethoxine monoclonal antibody [6]: quenched

Molecule: COc1cc(NS(=O)(=O)c2ccc(NC(=O)CCC(=O)NCc3c(O)ccc4c(-c5ccccc5C(=O)O)c5ccc(=O)cc-5oc34)cc2)nc(OC)n1 [SDM-Su-F, Sulfadimethoxine-Succinic-Fluorescein]
- fluorescence quenching by anti-sulfadimethoxine monoclonal antibody [6]: quenched

Molecule: CNC(=NCCCC(N)C(=O)NCc1c(O)c(F)cc2c(-c3ccccc3C(=O)O)c3cc(F)c(=O)cc-3oc12)NC (stereo not shown) [SDMA-DFF]
- Max Absorption [1]: 437 nm
- Max Emision [1]: 525 nm
- quenching efficiency in comparison with SDMA-Fl ([3]; anti-SDMA antibody conjugated to BHQ10 (4 eq.)): slightly greater
- fluorescence quenched by adding anti-SDMA antibody [3]: about 50%

Molecule: O=C(O)c1ccccc1-c1c2ccc(=O)cc-2oc2c(CNC(Cc3cc(I)c(Oc4cc(I)c(O)c(I)c4)c(I)c3)C(=O)O)c(O)ccc12 (stereo not shown) [T4-F]
- Percentage of fluorescence quenching, BHQ1-Ab ([7]; anti-T4-Mab conjugated to BHQ1): No
- Percentage of fluorescence quenching, Cy5-Ab ([7]; anti-T4-Mab conjugated to Cy5): 31%
- Percentage of fluorescence quenching, Ab ([7]; anti-T4-Mab without quencher): No
- quenching efficiency ([5]; ratio of T4-F: Ab-Cy5 of about 1:1): about 70%

Molecule: AEQLALEPLHRS [P1, canine NT-proBNP peptide]
- Percentage Fluorescence Quenching, DFF Conjugate, Ab-BHQ10 ([8]; NT-proBNP peptide-difluorofluorescein conjugate, mAb-BHQ10, molar ratio of 1:1): 64.7%
- Percentage Fluorescence Quenching, DFF Conjugate, Ab ([8]; NT-proBNP peptide-difluorofluorescein conjugate, molar ratio of 1:1): 63.3%
- Percentage Fluorescence Quenching, F1 Conjugate, Ab ([8]; NT-proBNP peptide-fluorescein conjugate, Ab/Conjugate molar ratio of 1:1): 39.4%
- Percentage Fluorescence Quenching, F1 Conjugate, Ab-BHQ10 ([8]; NT-proBNP peptide-fluorescein conjugate, mAb-BHQ10, molar ratio of 1:1): 40.2%
- fluorescence intensity as a function of NT-proBNP peptide P1 concentration ([9]; PBS, mixture of P1-Fl or P1-DFF with Ab or Ab-BHQ10): a dose response was observed
- dose response of P1 peptide in serum ([9]; charcoal stripped serum, P1-Fl or P1-DFF): produced a dose response

B1: full length NT-proBNP protein: canine NT-proBNP, SEQ ID NO: 14 (protein, listed as Canis familiaris)
chain: HPLGGRSPASEASEASEASGLWAVQELLGRLKDAVSELQAEQLALEPLHRSHSPAEAPEAGGTPRGVLAPHDSVLQALR
- dose response of full length NT-proBNP spiked into charcoal stripped serum ([10]; P1-Fl/Ab or P1-DFF/Ab): dose response was also observed
- fluorescence intensity as a function of full length NT-proBNP protein concentration ([10]; PBS, P1-Fl/Ab or P1-DFF/Ab at 1:1): a dose response was observed
